2 molecules from ChEMBL document CHEMBL5725581, “Compounds and compositions for treating HIV with derivatives of Betulin” (2018) can be followed below.

The test is described as follows: MT4 Cell Antiviral Assay: Antiviral HIV activity and compound-induced cytotoxicity were measured in parallel by means of a propidium iodide based procedure in the human T-cell lymphotropic virus transformed cell line MT4. Aliquots of the test compounds were serially diluted in medium (RPMI 1640, 10% fetal calf serum (FCS), and gentamycin) in 96-well plates (Costar 3598) using a Cetus Pro/Pette. ….

SMILES strings stand for the structures.

Description: MT4 Cell Antiviral Assay: Antiviral HIV activity and compound-induced cytotoxicity were measured in parallel by means of a propidium iodide based procedure in the human T-cell lymphotropic virus transformed cell line MT4. […] Exponentially growing MT4 cells were harvested and centrifuged at 1000 rpm for 10 min in a Jouan centrifuge (model CR 4 12). […] Cell infection was allowed to proceed for 1 hr at 37° C. in a tissue culture incubator with humidified 5% CO2 atmosphere. After the 1 hr incubation the virus/cell suspensions were diluted 6-fold with fresh medium, and 125 μl of the cell suspension was added to each well of the plate containing pre-diluted compound. Plates were then placed in a tissue culture incubator with humidified 5% CO2 for 5 days. […] After thorough mixing with a Costar multitip pipetter, 60 μl of the mixture was transferred to filter-bottomed 96-well plates. The plates were analyzed in an automated assay instrument (Screen Machine, Idexx Laboratories). The control and standard used was 3′-azido-3′-deoxythymidine tested over a concentration range of 0.01 to 1 μM in every assay. […] The assay makes use of a propidium iodide dye to estimate the DNA content of each well.For MTS readout, 20 μl CellTiter 96 AQ One Solution reagent (Promega #G3582) was added to each well.

On to `CC(C)C1=C2[C@H]3CC[C@@H]4[C@@]5(C)CC[C@H](OC(=O)CC(C)(C)CC(=O)O)C(C)(C)[C@@H]5CC[C@@]4(C)[C@]3(C)CC[C@@]2([C@H](O)CNCc2ccc(Cl)cc2)CC1=O`, for which the EC50 amounted to 104 nM.

Under “MT4, 10 min”, `CC(C)NC[C@H](O)[C@@]12CC[C@]3(C)[C@H](CC[C@@H]4[C@@]5(C)CC[C@H](OC(=O)CC(C)(C)C(=O)O)C(C)(C)[C@@H]5CC[C@]43C)C1=C(C(C)C)C(=O)C2` displayed an EC50 of 31.5 nM.
